How the values were obtained:
[1] = xn = mol fraction of the nth substance listed; conditions: 298.15 K, 101 kPa, Liquid; for viscosity: Capillary tube (Ostwald / Ubbelohde) method
[2] = refractive index (Na D-line) (dimensionless); xn = mol fraction of the nth substance listed; conditions: 298.15 K, 101 kPa, Liquid, Standard Abbe refractometry
[3] = 298.15 K, Liquid; for viscosity: Capillary tube (Ostwald / Ubbelohde) method
[4] = refractive index (Na D-line) (dimensionless); conditions: 298.15 K; 101.33 kPa; Liquid; Standard Abbe refractometry

CCCO [propan-1-ol] + O
Conditions | mass density, [1] [kg/m3] | refractive index, [2] | viscosity, [1] [mPa·s]
x1 = 0.0504 | 975.1 | 1.34612 | 1.616
x1 = 0.0993 | 953.3 | 1.35475 | 2.121
x1 = 0.1986 | 914.9 | 1.36491 | 2.599
x1 = 0.2979 | 887.2 | 1.37116 | 2.691
x1 = 0.3949 | 866.9 | 1.37516 | 2.61
x1 = 0.4955 | 850.3 | 1.37805 | 2.494
x1 = 0.5953 | 836.9 | 1.38008 | 2.339
x1 = 0.6995 | 825.6 | 1.38154 | 2.221
x1 = 0.7969 | 816.3 | 1.38239 | 2.124
x1 = 0.8983 | 807.7 | 1.38299 | 2.026
x1 = 0.9518 | 803.5 | 1.38308 | 1.998
x1 = 1 | 799.6 | 1.38309 | 2.017

CC(C)O [propan-2-ol]
[3], 101 kPa
Conditions | mass density [kg/m3] | viscosity [mPa·s]
– | 780.7 | 2.082

Conditions | refractive index
[4] | 1.375

CC(C)O [propan-2-ol] + O
Conditions | mass density, [1] [kg/m3] | refractive index, [2] | viscosity, [1] [mPa·s]
x1 = 0.0491 | 974.6 | 1.3456 | 1.718
x1 = 0.1008 | 953.6 | 1.3557 | 2.495
x1 = 0.2011 | 912.6 | 1.365 | 3.038
x1 = 0.2994 | 881.6 | 1.3697 | 3.087
x1 = 0.3992 | 857.7 | 1.3724 | 2.924
x1 = 0.4981 | 838.8 | 1.374 | 2.693
x1 = 0.5979 | 823.5 | 1.3749 | 2.489
x1 = 0.6987 | 810.6 | 1.3754 | 2.274
x1 = 0.7993 | 799.4 | 1.3756 | 2.153
x1 = 0.8998 | 789.8 | 1.3754 | 2.073
x1 = 0.9495 | 785.4 | 1.3752 | 2.063
x1 = 1 | 780.7 | 1.375 | 2.082

CCCO [propan-1-ol]
[3], 101 kPa
Conditions | mass density [kg/m3] | viscosity [mPa·s]
– | 799.6 | 2.017

Conditions | refractive index
[4] | 1.38309

CCOS(=O)(=O)[O-].CCn1cc[n+](C)c1 [1-ethyl-3-methylimidazolium ethyl sulfate]
[3], 101.33 kPa
Conditions | mass density [kg/m3] | viscosity [mPa·s]
– | 1237.63 | 97.58

From the NIST ThermoML archive (doi:10.1021/je700700f)
